The test system of the assay is MV-4-11 cells. Put plainly: Gene expression microarray analysis (Affymetrix PrimeView) and GSEA. The format is cell-based, human. Also noted: RFU PODN (11730768_x_at) / Fold change /veh PODN (11730768_x_at) / RFU LINC00158 (11744669_a_at) / Fold change /veh LINC00158 (11744669_a_at) / RFU DUSP10 (11751237_a_at) / Fold change /veh DUSP10 (11751237_a_at) / RFU ID3 (11757404_x_at) / Fold change /veh ID3 (11757404_x_at) / RFU PLEKHG5 (11737974_s_at) / Fold change /veh PLEKHG5 (11737974_s_at) / RFU LRRC4B (11730491_at) / Fold change /veh LRRC4B (11730491_at) / RFU GIMAP4 (11747438_a_at) / Fold change /veh GIMAP4 (11747438_a_at) / RFU KRT8 (11758183_x_at) / Fold change /veh KRT8 (11758183_x_at) / RFU CNN1 (11734310_a_at) / Fold change /veh CNN1 (11734310_a_at) / RFU VPS37D (11726825_at) / Fold change /veh VPS37D (11726825_at) / RFU C10orf10 (11716522_x_at) / Fold change /veh C10orf10 (11716522_x_at) / RFU KIR2DL2 /// KIR2DL4 /// KIR2DL5A /// KIR2DL5B /// KIR2DS1 /// KIR2DS2 /// KIR2DS3 /// KIR2DS4 /// KIR3DL3 /// KIR3DL3 /// KIR3DS1 (11738374_at) / Fold change /veh KIR2DL2 /// KIR2DL4 /// KIR2DL5A /// KIR2DL5B /// KIR2DS1 /// KIR2DS2 /// KIR2DS3 /// KIR2DS4 /// KIR3DL3 /// KIR3DL3 /// KIR3DS1 (11738374_at) / RFU C1QL1 (11718748_at) / Fold change /veh C1QL1 (11718748_at) / RFU TMPRSS4 (11747572_a_at) / Fold change /veh TMPRSS4 (11747572_a_at) / RFU HAMP (11756126_x_at) / Fold change /veh HAMP (11756126_x_at) / RFU RNFT2 (11725882_a_at) / Fold change /veh RNFT2 (11725882_a_at) / RFU NR4A2 (11747474_a_at) / Fold change /veh NR4A2 (11747474_a_at) / RFU ABCC12 (11746883_a_at) / Fold change /veh ABCC12 (11746883_a_at) / RFU TMEM136 (11760407_x_at) / Fold change /veh TMEM136 (11760407_x_at) / RFU CLDN22 /// WWC2 (11732394_at) / Fold change /veh CLDN22 /// WWC2 (11732394_at) / RFU HLA-DPB1 (11760878_x_at) / Fold change /veh HLA-DPB1 (11760878_x_at) / RFU SPINT1 (11716480_a_at) / Fold change /veh SPINT1 (11716480_a_at) / RFU GAP43 (11754022_s_at) / Fold change /veh GAP43 (11754022_s_at) / RFU A4GNT (11735810_at) / Fold change /veh A4GNT (11735810_at) / RFU PRB3 (11715151_x_at) / Fold change /veh PRB3 (11715151_x_at) / RFU TUBB4B (11761932_at) / Fold change /veh TUBB4B (11761932_at) / RFU CAPN14 (11732068_a_at) / Fold change /veh CAPN14 (11732068_a_at) / RFU TMCC2 (11721928_a_at) / Fold change /veh TMCC2 (11721928_a_at) / RFU IRGQ (11745062_a_at) / Fold change /veh IRGQ (11745062_a_at) / RFU FAM174B (11720279_a_at) / Fold change /veh FAM174B (11720279_a_at) / RFU TMPRSS4 (11748680_a_at) / Fold change /veh TMPRSS4 (11748680_a_at) / RFU FAM212B (11763350_a_at) / Fold change /veh FAM212B (11763350_a_at) / RFU PLEKHG5 (11743358_a_at) / Fold change /veh PLEKHG5 (11743358_a_at) / RFU ZSCAN30 (11745921_a_at) / Fold change /veh ZSCAN30 (11745921_a_at) / RFU CMKLR1 (11741424_a_at) / Fold change /veh CMKLR1 (11741424_a_at) / RFU LOC101060620 /// MAPK8IP1 (11723275_at) / Fold change /veh LOC101060620 /// MAPK8IP1 (11723275_at) / RFU SPTSSB (11747773_x_at) / Fold change /veh SPTSSB (11747773_x_at) / RFU PRSS12 (11739890_at) / Fold change /veh PRSS12 (11739890_at) / RFU BIN1 (11741810_x_at) / Fold change /veh BIN1 (11741810_x_at) / RFU WNT11 (11732464_a_at) / Fold change /veh WNT11 (11732464_a_at) / RFU C10orf10 (11716521_a_at) / Fold change /veh C10orf10 (11716521_a_at) / RFU C5orf56 (11738089_at) / Fold change /veh C5orf56 (11738089_at) / RFU CYB561 (11721691_x_at) / Fold change /veh CYB561 (11721691_x_at) / RFU ANKRD19P (11752326_a_at) / Fold change /veh ANKRD19P (11752326_a_at) / RFU OR2T12 /// OR2T33 /// OR2T8 (11738714_s_at) / Fold change /veh OR2T12 /// OR2T33 /// OR2T8 (11738714_s_at) / RFU VCAN (11748164_a_at) / Fold change /veh VCAN (11748164_a_at) / RFU JSRP1 (11732532_at) / Fold change /veh JSRP1 (11732532_at) / RFU KRTAP10-11 (11738290_x_at) / Fold change /veh KRTAP10-11 (11738290_x_at) / RFU MYO3A (11730013_a_at) / Fold change /veh MYO3A (11730013_a_at) / RFU EBF3 (11725865_a_at) / Fold change /veh EBF3 (11725865_a_at) / RFU CAMK2N1 (11719241_x_at) / Fold change /veh CAMK2N1 (11719241_x_at) / RFU C5orf56 (11738088_a_at) / Fold change /veh C5orf56 (11738088_a_at) / RFU OLFML3 (11715873_a_at) / Fold change /veh OLFML3 (11715873_a_at) / RFU LOC100653217 /// NTM (11731650_a_at) / Fold change /veh LOC100653217 /// NTM (11731650_a_at) / RFU MAPK11 (11762145_a_at) / Fold change /veh MAPK11 (11762145_a_at) / RFU FIZ1 (11724087_x_at) / Fold change /veh FIZ1 (11724087_x_at) / RFU OASL (11726364_x_at) / Fold change /veh OASL (11726364_x_at) / RFU SOX15 (11748057_x_at) / Fold change /veh SOX15 (11748057_x_at) / RFU CD79A (11719716_a_at) / Fold change /veh CD79A (11719716_a_at) / RFU HIST1H1D (11736915_at) / Fold change /veh HIST1H1D (11736915_at) / RFU CASKIN2 (11723855_a_at) / Fold change /veh CASKIN2 (11723855_a_at) / RFU LOC730098 (11760151_x_at) / Fold change /veh LOC730098 (11760151_x_at) / RFU OR4N2 (11742367_at) / Fold change /veh OR4N2 (11742367_at) / RFU PRRT2 (11749266_a_at) / Fold change /veh PRRT2 (11749266_a_at) / RFU SNX32 (11753110_a_at) / Fold change /veh SNX32 (11753110_a_at) / RFU CDHR5 (11726645_a_at) / Fold change /veh CDHR5 (11726645_a_at) / RFU RCAN1 (11760418_a_at) / Fold change /veh RCAN1 (11760418_a_at) / RFU FAM167A (11723789_a_at) / Fold change /veh FAM167A (11723789_a_at) / RFU FAM26E (11764081_at) / Fold change /veh FAM26E (11764081_at) / RFU ISYNA1 (11749810_s_at) / Fold change /veh ISYNA1 (11749810_s_at) / RFU ACY1 (11761880_at) / Fold change /veh ACY1 (11761880_at) / RFU 11764098_at / Fold change /veh 11764098_at / RFU SAMD14 (11745864_x_at) / Fold change /veh SAMD14 (11745864_x_at) / RFU NPB (11741838_a_at) / Fold change /veh NPB (11741838_a_at) / RFU TMPRSS6 (11731388_a_at) / Fold change /veh TMPRSS6 (11731388_a_at) / RFU KRTAP10-2 (11738614_at) / Fold change /veh KRTAP10-2 (11738614_at) / RFU ARHGAP8 /// PRR5-ARHGAP8 (11727945_x_at) / Fold change /veh ARHGAP8 /// PRR5-ARHGAP8 (11727945_x_at) / RFU KRTAP5-7 /// NADSYN1 (11734609_at) / Fold change /veh KRTAP5-7 /// NADSYN1 (11734609_at) / RFU RASL12 (11751679_a_at) / Fold change /veh RASL12 (11751679_a_at) / RFU CDKN2B (11736163_a_at) / Fold change /veh CDKN2B (11736163_a_at) / RFU PRF1 (11729649_at) / Fold change /veh PRF1 (11729649_at) / RFU, ZNF638 /// ZNF638-IT1 / Fold change vs veh, ZNF638 /// ZNF638-IT1 / RFU, PANK3 / Fold change vs veh, PANK3 / RFU, SH3YL1 / Fold change vs veh, SH3YL1 / RFU, ZEB2 / Fold change vs veh, ZEB2 / RFU, NRIP1 / Fold change vs veh, NRIP1 / RFU, PTTG1IP / Fold change vs veh, PTTG1IP / RFU, CAPN2 / Fold change vs veh, CAPN2 / RFU, MED14 / Fold change vs veh, MED14 / RFU, SNORA58 / Fold change vs veh, SNORA58 / RFU, C1orf63 / Fold change vs veh, C1orf63 / RFU, LRRFIP1 / Fold change vs veh, LRRFIP1 / RFU, NDUFAF7 / Fold change vs veh, NDUFAF7 / RFU, SLC12A2 / Fold change vs veh, SLC12A2 / RFU, IBTK / Fold change vs veh, IBTK / RFU, ESF1 / Fold change vs veh, ESF1 / Fold change vs veh, TMEM50B / RFU, TAOK1 / Fold change vs veh, TAOK1 / RFU, ACBD3 / Fold change vs veh, ACBD3 / RFU, TMA16 / Fold change vs veh, TMA16 / RFU, RWDD3 / Fold change vs veh, RWDD3 / RFU, BCAT1 / Fold change vs veh, BCAT1 / RFU, EDEM3 / Fold change vs veh, EDEM3 / RFU, TMEM33 / Fold change vs veh, TMEM33 / RFU, WDR75 / Fold change vs veh, WDR75 / RFU, AHCTF1 / Fold change vs veh, AHCTF1 / RFU, TFRC / Fold change vs veh, TFRC / RFU, ZDHHC17 / Fold change vs veh, ZDHHC17 / RFU, NOM1 / Fold change vs veh, NOM1 / RFU, ARL8B / Fold change vs veh, ARL8B / RFU, ZBTB11 / Fold change vs veh, ZBTB11 / RFU, TAMM41 / Fold change vs veh, TAMM41 / RFU, KIAA1704 /// LOC100996395 / Fold change vs veh, KIAA1704 /// LOC100996395 / RFU, ING1 / Fold change vs veh, ING1 / RFU, TRMT61B / Fold change vs veh, TRMT61B / RFU, FUBP3 / Fold change vs veh, FUBP3 / RFU, TP53 / Fold change vs veh, TP53 / RFU, TNKS2 / Fold change vs veh, TNKS2 / RFU, ZFP14 / Fold change vs veh, ZFP14 / RFU, ACTR2 / Fold change vs veh, ACTR2 / RFU, PPP3R1 / Fold change vs veh, PPP3R1 / RFU, PIK3R1 / Fold change vs veh, PIK3R1 / RFU, HNRNPA1 / Fold change vs veh, HNRNPA1 / RFU, RNF170 / Fold change vs veh, RNF170 / RFU, ZNF28 / Fold change vs veh, ZNF28 / RFU, RNGTT / Fold change vs veh, RNGTT / RFU, OGT / Fold change vs veh, OGT / RFU, BRD1 / Fold change vs veh, BRD1 / RFU, MARS / Fold change vs veh, MARS / RFU, ZNF655 / Fold change vs veh, ZNF655 / RFU, FAHD1 / Fold change vs veh, FAHD1 / RFU, BDP1 / Fold change vs veh, BDP1 / RFU, LRRCC1 / Fold change vs veh, LRRCC1 / RFU, ARID1A / Fold change vs veh, ARID1A / RFU, ZNF146 / Fold change vs veh, ZNF146 / RFU, ZNF330 / Fold change vs veh, ZNF330 / RFU, GPN3 / Fold change vs veh, GPN3 / RFU, C9orf123 / Fold change vs veh, C9orf123 / RFU, N4BP2L2 / Fold change vs veh, N4BP2L2 / RFU, ARFIP1 / Fold change vs veh, ARFIP1 / RFU, FAM179B / Fold change vs veh, FAM179B / RFU, BCL10 / Fold change vs veh, BCL10 / RFU, UHRF1BP1L / Fold change vs veh, UHRF1BP1L / RFU, BET1 / Fold change vs veh, BET1 / RFU, CNOT2 / Fold change vs veh, CNOT2 / RFU, ZNF268 / Fold change vs veh, ZNF268 / Fold change vs veh, ZNF507 / RFU, DGCR2 / Fold change vs veh, DGCR2 / RFU, WDSUB1 / Fold change vs veh, WDSUB1 / Fold change vs veh, HSP90B1 /// MIR3652 / RFU, ADSS / Fold change vs veh, ADSS / RFU, GK / Fold change vs veh, GK / RFU, ZNF148 / Fold change vs veh, ZNF148 / RFU, TAF9 / Fold change vs veh, TAF9 / RFU, SLC1A5 / Fold change vs veh, SLC1A5 / RFU, SLMO2 / Fold change vs veh, SLMO2 / RFU, ABCC4 / Fold change vs veh, ABCC4 / RFU, LOC101060439 /// RAP1B / Fold change vs veh, LOC101060439 /// RAP1B / RFU, RFX7 / Fold change vs veh, RFX7 / RFU, GTPBP10 / Fold change vs veh, GTPBP10 / RFU, CNEP1R1 / Fold change vs veh, CNEP1R1 / RFU, BIVM-ERCC5 /// ERCC5 / Fold change vs veh, BIVM-ERCC5 /// ERCC5 / RFU, ILF3 / Fold change vs veh, ILF3 / RFU 11762660_at / Fold change /veh 11762660_at / RFU VCAN (11757783_s_at) / Fold change /veh VCAN (11757783_s_at) / RFU DDX43 (11728927_at) / Fold change /veh DDX43 (11728927_at) / RFU KRT8 (11758188_x_at) / Fold change /veh KRT8 (11758188_x_at) / RFU NKD1 (11759106_at) / Fold change /veh NKD1 (11759106_at) / RFU SRD5A1 (11742802_a_at) / Fold change /veh SRD5A1 (11742802_a_at) / RFU TPSAB1 /// TPSB2 (11721975_s_at) / Fold change /veh TPSAB1 /// TPSB2 (11721975_s_at) / RFU GSTM3 (11746129_a_at) / Fold change /veh GSTM3 (11746129_a_at) / RFU IL23R (11737362_x_at) / Fold change /veh IL23R (11737362_x_at) / RFU TMEM51 (11727254_a_at) / Fold change /veh TMEM51 (11727254_a_at) / RFU PIWIL2 (11732686_x_at) / Fold change /veh PIWIL2 (11732686_x_at) / RFU ORM1 (11744905_x_at) / Fold change /veh ORM1 (11744905_x_at) / RFU CCDC152 (11743942_at) / Fold change /veh CCDC152 (11743942_at) / RFU ECM1 (11717891_a_at) / Fold change /veh ECM1 (11717891_a_at) / RFU IL23R (11748794_a_at) / Fold change /veh IL23R (11748794_a_at) / RFU TNFAIP8L3 (11732012_x_at) / Fold change /veh TNFAIP8L3 (11732012_x_at) / RFU MBOAT4 (11741988_at) / Fold change /veh MBOAT4 (11741988_at) / RFU 11764193_at / Fold change /veh 11764193_at / RFU TMEM53 (11763286_at) / Fold change /veh TMEM53 (11763286_at) / RFU MAGEB2 (11727129_at) / Fold change /veh MAGEB2 (11727129_at) / RFU TMEM200A (11744735_a_at) / Fold change /veh TMEM200A (11744735_a_at) / RFU CCDC152 (11751479_a_at) / Fold change /veh CCDC152 (11751479_a_at) / RFU FAM211A (11726209_a_at) / Fold change /veh FAM211A (11726209_a_at) / RFU RGS16 (11746705_a_at) / Fold change /veh RGS16 (11746705_a_at) / RFU VCAN (11755009_s_at) / Fold change /veh VCAN (11755009_s_at) / RFU RHOB (11743442_s_at) / Fold change /veh RHOB (11743442_s_at) / RFU RGS16 (11720943_a_at) / Fold change /veh RGS16 (11720943_a_at) / RFU RGS16 (11720944_at) / Fold change /veh RGS16 (11720944_at) / RFU, VPS4B / Fold change vs veh, VPS4B / RFU, CREB1 / Fold change vs veh, CREB1 / RFU, DNAJC13 / Fold change vs veh, DNAJC13 / RFU, GNAQ / Fold change vs veh, GNAQ / RFU, CDK5R1 / Fold change vs veh, CDK5R1 / RFU, ZRANB3 / Fold change vs veh, ZRANB3 / RFU, CUL4A / Fold change vs veh, CUL4A / RFU, CCNY / Fold change vs veh, CCNY / RFU, UFL1 / Fold change vs veh, UFL1 / RFU, COG3 / Fold change vs veh, COG3 / RFU, DIAPH2 / Fold change vs veh, DIAPH2 / RFU, SKA2 / Fold change vs veh, SKA2 / RFU, AFF3 / Fold change vs veh, AFF3 / RFU, LMF1 / Fold change vs veh, LMF1 / RFU, IPO11 / Fold change vs veh, IPO11 / RFU, DFFB / Fold change vs veh, DFFB / RFU, FOXP1 / Fold change vs veh, FOXP1 / RFU, CARD8 / Fold change vs veh, CARD8 / RFU, STRN3 / Fold change vs veh, STRN3 / RFU, ADK / Fold change vs veh, ADK / RFU, RASSF2 / Fold change vs veh, RASSF2 / RFU, WIPF1 / Fold change vs veh, WIPF1 / RFU, LARP1B / Fold change vs veh, LARP1B / RFU, RASA1 / Fold change vs veh, RASA1 / RFU, RB1 / Fold change vs veh, RB1 / RFU, PPFIA1 / Fold change vs veh, PPFIA1 / RFU, MAT2A / Fold change vs veh, MAT2A / RFU, CCT5 / Fold change vs veh, CCT5 / RFU, WDR92 / Fold change vs veh, WDR92 / RFU, CUX1 / Fold change vs veh, CUX1 / RFU, TTC7A / Fold change vs veh, TTC7A / RFU, TMEM135 / Fold change vs veh, TMEM135 / RFU, DEPTOR / Fold change vs veh, DEPTOR / RFU, CPM / Fold change vs veh, CPM / RFU, DNAJB6 / Fold change vs veh, DNAJB6 / RFU, CACNA2D3 / Fold change vs veh, CACNA2D3 / RFU, DTX4 / Fold change vs veh, DTX4 / RFU, TFCP2 / Fold change vs veh, TFCP2 / RFU, GMCL1 /// GMCL1P1 / Fold change vs veh, GMCL1 /// GMCL1P1 / RFU, AEBP2 / Fold change vs veh, AEBP2 / RFU, SNHG1 /// SNORD22 /// SNORD25 /// SNORD26 /// SNORD27 /// SNORD28 /// SNORD29 /// SNORD31 / Fold change vs veh, SNHG1 /// SNORD22 /// SNORD25 /// SNORD26 /// SNORD27 /// SNORD28 /// SNORD29 /// SNORD31 / Fold change (Aza/veh), C12orf56 (ProbeSet 11735607_a_at) / Fold change (ACY-1035/veh), C12orf56 (ProbeSet 11735607_a_at) / Fold change (Aza/veh), FGFR1OP (ProbeSet 11751329_s_at) / Fold change (ACY-1035/veh), FGFR1OP (ProbeSet 11751329_s_at) / Fold change (Aza/veh), VPS36 (ProbeSet 11739960_a_at) / Fold change (ACY-1035/veh), VPS36 (ProbeSet 11739960_a_at) / RFU SYPL1 (11715823_x_at) / Fold change /veh SYPL1 (11715823_x_at) / RFU IGFBP7 (11715501_s_at) / Fold change /veh IGFBP7 (11715501_s_at) / RFU REEP3 (11722064_at) / Fold change /veh REEP3 (11722064_at) / RFU IGLL1 (11728026_x_at) / Fold change /veh IGLL1 (11728026_x_at): dose or concentration left out as unconfirmed. The following applies: MV-4-11 cells, 48 hours.

Take `Nc1ccc(-c2cccs2)cc1NC(=O)c1ccc2c(c1)cc(C1CC1)n2CCN1CCOCC1` [ACY-1035]: the “Fold change /veh RGS16 (11746705_a_at)” value came out at 1.06.

Source of the values: article PMC5218480 (PLoS ONE, 2017).
